In ChEMBL document CHEMBL1149774, “Synthesis of N-(5,7-diamino-3-phenyl-quinoxalin-2-yl)-3,4,5-substituted anilines and N-[4[(5,7-diamino-3-phenylquinoxalin-2-yl)amino]benzoyl]-l-glutamic acid diethyl ester: evaluation of in vitro anti-cancer and anti-folate activities” (Eur J Med Chem, 2008):
pKi: −log10 of the molar value. Calls of active or inactive are those of the source. No cut-off for these calls is given here.

Experiments:
DU-145 = test: Growth inhibition of human DU145 cells after 48 hrs by SRB staining method; assay type: functional; conditions: DU-145, 48 h
HCC 2998 = test: Growth inhibition of human HCC2998 cells after 48 hrs by SRB staining method; assay type: functional; conditions: HCC 2998, 48 h
IGROV-1 = test: Growth inhibition of human IGROV1 cells after 48 hrs by SRB staining method; assay type: functional; conditions: IGROV-1, 48 h
T47D = test: Growth inhibition of human T47D cells after 48 hrs by SRB staining method; assay type: functional
SW-620 = test: Growth inhibition of human SW620 cells after 48 hrs by SRB staining method; assay type: functional; conditions: SW-620, 48 h
U-251 = test: Growth inhibition of human U251 cells after 48 hrs by SRB staining method; assay type: functional; conditions: U-251, 48 h
786-0 = test: Growth inhibition of human 786-0 cells after 48 hrs by SRB staining method; assay type: functional; conditions: 786-0, 48 h
MOLT-4 = test: Growth inhibition of human MOLT4 cells after 48 hrs by SRB staining method; assay type: functional; conditions: MOLT-4, 48 h
EKVX = test: Growth inhibition of human EKVX cells after 48 hrs by SRB staining method; assay type: functional
SK-OV-3 = test: Growth inhibition of human SKOV3 cells after 48 hrs by SRB staining method; assay type: functional; conditions: SK-OV-3, 48 h
K562 = test: Growth inhibition of human K562 cells after 48 hrs by SRB staining method; assay type: functional; conditions: K562, 48 h
Thymidylate synthase = target: T1, Thymidylate synthase (Lactobacillus casei, UniProt P00469)
T1 sequence (P00469 whole entry): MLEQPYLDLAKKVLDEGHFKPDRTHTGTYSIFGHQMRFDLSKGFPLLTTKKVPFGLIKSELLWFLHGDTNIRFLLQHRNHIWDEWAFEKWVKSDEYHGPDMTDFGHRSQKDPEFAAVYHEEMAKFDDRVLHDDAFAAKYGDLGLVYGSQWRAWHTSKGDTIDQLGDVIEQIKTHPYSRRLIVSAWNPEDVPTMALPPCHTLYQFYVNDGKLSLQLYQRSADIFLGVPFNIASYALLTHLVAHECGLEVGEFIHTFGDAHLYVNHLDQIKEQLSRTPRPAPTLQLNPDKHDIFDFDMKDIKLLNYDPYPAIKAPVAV
Description: Inhibition of Lactobacillus casei thymidylate synthase

HT-29 = test: Growth inhibition of human HT29 cells after 48 hrs by SRB staining method; assay type: functional; conditions: HT-29, 48 h
NCI-H460 = test: Growth inhibition of human NCI-H460 cells after 48 hrs by SRB staining method; assay type: functional; conditions: NCI-H460, 48 h
HCT-15 = test: Growth inhibition of human HCT15 cells after 48 hrs by SRB staining method; assay type: functional; conditions: HCT-15, 48 h
COLO 205 = test: Growth inhibition of human COLO205 cells after 48 hrs by SRB staining method; assay type: functional; conditions: COLO 205, 48 h
BT-549 = test: Growth inhibition of human BT549 cells after 48 hrs by SRB staining method; assay type: functional; conditions: BT-549, 48 h
SK-MEL-2 = test: Growth inhibition of human SK-MEL-2 cells after 48 hrs by SRB staining method; assay type: functional; conditions: SK-MEL-2, 48 h
SF-295 = test: Growth inhibition of human SF295 cells after 48 hrs by SRB staining method; assay type: functional; conditions: SF-295, 48 h
UACC-257 = test: Growth inhibition of human UACC257 cells after 48 hrs by SRB staining method; assay type: functional; conditions: UACC-257, 48 h
LOX IMVI = test: Growth inhibition of human LOX IMVI cells after 48 hrs by SRB staining method; assay type: functional
[1] = target: T2, Dihydrofolate reductase (Homo sapiens) (UniProt P00374); test: Inhibition of human dihydrofolate reductase at 10 uM
T2 sequence (whole entry): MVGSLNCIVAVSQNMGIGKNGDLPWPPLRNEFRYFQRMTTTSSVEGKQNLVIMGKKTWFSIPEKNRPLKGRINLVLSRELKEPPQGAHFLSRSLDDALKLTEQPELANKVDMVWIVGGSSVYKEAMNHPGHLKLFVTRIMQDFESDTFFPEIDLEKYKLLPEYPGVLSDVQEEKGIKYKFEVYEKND

SR = test: Growth inhibition of human SR cells after 48 hrs by SRB staining method; assay type: functional
[2] = Growth inhibition of human HS 578T cells after 48 hrs by SRB staining method; assay type: functional
[3] = read-out: pLC50 (the source's name) (converted)

Compound: COc1ccc(Nc2nc3cc(N)cc(N)c3nc2-c2ccccc2)cc1OC
- GI50 (DU-145): 44.7 µM
- CC50 (DU-145; [3]): > 100 µM
- TGI (DU-145; read-out: pTGI (converted)): > 100 µM
- GI50 (HCC 2998): 18.2 µM
- LC50 (HCC 2998): 85.1 µM
- TGI (HCC 2998; read-out: pTGI (converted)): 39.8 µM
- GI50 (IGROV-1): 24.5 µM
- LC50 (IGROV-1): > 100 µM
- TGI (IGROV-1; read-out: pTGI (converted)): > 100 µM
- GI50 (T47D): 14.5 µM
- CC50 (T47D; [3]): > 100 µM
- TGI (T47D; read-out: pTGI (converted)): 38 µM
- GI50 (SW-620): 15.5 µM
- CC50 (SW-620; [3]): 83.2 µM
- TGI (SW-620; read-out: pTGI (converted)): 36.3 µM
- GI50 (U-251): 25.7 µM
- LC50 (50% lethal concentration) (U-251): > 100 µM
- TGI (U-251; read-out: pTGI (converted)): > 100 µM
- GI50 (786-0): 24 µM
- CC50 (786-0; [3]): > 100 µM
- TGI (786-0; read-out: pTGI (converted)): 91.2 µM
- GI50 (MOLT-4): 6.92 µM
- CC50 (MOLT-4; [3]): > 100 µM
- TGI (MOLT-4; read-out: pTGI (converted)): > 100 µM
- GI50 (EKVX): 25.7 µM
- CC50 (EKVX; [3]): > 100 µM
- TGI (EKVX; read-out: pTGI (converted)): 70.8 µM
- GI50 (SK-OV-3): 38 µM
- CC50 (SK-OV-3; [3]): > 100 µM
- TGI (SK-OV-3; read-out: pTGI (converted)): 87.1 µM
- GI50 (K562): 20.4 µM
- CC50 (K562; [3]): > 100 µM
- TGI (K562; read-out: pTGI (converted)): 70.8 µM
- pKi (Thymidylate synthase): 5.22
- GI50 (HT-29): 25.1 µM
- LC50 (HT-29): > 100 µM
- TGI (HT-29; read-out: pTGI (converted)): 52.5 µM
- GI50 (NCI-H460): 20.4 µM
- LC50 (concentration killing 50% of cells) (NCI-H460): > 100 µM
- TGI (NCI-H460; read-out: pTGI (converted)): > 100 µM
- GI50 (HCT-15): 28.8 µM
- LC50 (HCT-15): > 100 µM
- TGI (HCT-15; read-out: pTGI (converted)): > 100 µM
- GI50 (COLO 205): 20 µM
- LC50 (COLO 205): 85.1 µM
- TGI (COLO 205; read-out: pTGI (converted)): 40.7 µM
- GI50 (BT-549): 25.7 µM
- CC50 (BT-549; [3]): > 100 µM
- TGI (BT-549; read-out: pTGI (converted)): 81.3 µM
- GI50 (SK-MEL-2): 26.9 µM
- LC50 (SK-MEL-2): > 100 µM
- TGI (SK-MEL-2; read-out: pTGI (converted)): > 100 µM
- GI50 (SF-295): 17 µM
- LC50 (SF-295): > 100 µM
- TGI (SF-295; read-out: pTGI (converted)): 45.7 µM
- GI50 (UACC-257): 35.5 µM
- LC50 (UACC-257): > 100 µM
- TGI (UACC-257; read-out: pTGI (converted)): > 100 µM
- GI50 (LOX IMVI): 25.7 µM
- LC50 (LOX IMVI): > 100 µM
- TGI (LOX IMVI; read-out: pTGI (converted)): 72.4 µM
- Activity [1]: inactive
- GI50 (SR): 2.69 µM
- CC50 (SR; [3]): > 100 µM
- TGI (SR; read-out: pTGI (converted)): 21.9 µM
- GI50 [2]: 18.6 µM
- CC50 [2, 3]: > 100 µM
- TGI ([2]; read-out: pTGI (converted)): 50.1 µM
